# Measured values taken from patent US20120244567A1, “HUMAN EMBRYONIC STEM CELLS FOR HIGH THROUGHOUT DRUG SCREENING” (BUCK INSTITUTE FOR RESEARCH ON AGING, priority 2009, published 2012).
# Structures can show the parent of a compound that is named as a salt. Where two headings read alike, the source gives them in different places.
# Experiments:
# [1] = system: NSCs
# Procedure: RNAs isolated from NSCs and neurons with and without drug treatments were hybridized to Illumina HumanRef-8 BeadChip (Illumina, Inc., San Diego, Calif., performed by Microarray core facility at the Burnham Institute for Medical Research). The Illumina array data were normalized by the quantile method, and then transformed log 2 ratio values for a zero mean for expression values of each gene across all samples. The statistical and bioinformatics analyses were conducted by using R and the bioconductor package (www.bioconductor.org). The gene set enrichment analysis was conducted using the GSEA software (www.broad.mit.edu/gsea).
# [2] = system: hESCs and hESC-derived NSCs; assay: Comparative ATP screening on hESCs and hESC-derived NSCs (ratio ESC/NSC or NSC/ESC); parameters: hit class in primary screen / ESC/NSC: dose or concentration left out as unconfirmed; conditions: NINDS primary screen, ATP relative to DMSO controls
# From the text: Hits were defined based on the ability of a compound to affect ATP levels relative to DMSO controls on each plate.
# [3] = Amiloride sensitive Na channels, 4 hours of exposure
# [4] = Amine transporters, 4 hours of exposure
# [5] = Ca activated K channels, 4 hours of exposure
# [6] = Calcium channels, 4 hours of exposure
# [7] = Cl channels, 4 hours of exposure
# [8] = Delayed rectifier K channels, 4 hours of exposure
# [9] = H ion transporters, 4 hours of exposure
# [10] = Rectifier K channels, 4 hours of exposure
# [11] = Voltage gated Na channels, 4 hours of exposure
compound,measurement,setting,value
CCCCc1oc2ccccc2c1C(=O)c1cc(I)c(OCCN(CC)CC)c(I)c1 [Amiodarone Hydrochloride],"ERG expression, Treated NSC",[1],32.9
same,"ACCN1 gene expression, Treated NSC",[1]; [3],16.5
same,"ACCN2 gene expression, Treated NSC",[1]; [3],185.7
same,"ACCN3 gene expression, Treated NSC",[1]; [3],11
same,"SLC1A2 gene expression, Treated NSC",[1]; [4],15.7
same,"SLC1A3 gene expression, Treated NSC",[1]; [4],552.1
same,"SLC6A3 gene expression, Treated NSC",[1]; [4],21.2
same,"SLC6A9 gene expression, Treated NSC",[1]; [4],329.2
same,"SLC6A12 gene expression, Treated NSC",[1]; [4],9.6
same,"KCNMB1 gene expression, Treated NSC",[1]; [5],62.9
same,"KCNN1 gene expression, Treated NSC",[1]; [5],6.5
same,"KCNN2 gene expression, Treated NSC",[1]; [5],15.8
same,"KCNN3 gene expression, Treated NSC",[1]; [5],0.7
same,"CACNA1A gene expression, Treated NSC",[1]; [6],2
same,"CACNA1C gene expression, Treated NSC",[1]; [6],25.9
same,"CACNB2 gene expression, Treated NSC",[1]; [6],7.8
same,"CACNG2 gene expression, Treated NSC",[1]; [6],2.5
same,"CLCN2 gene expression, Treated NSC",[1]; [7],41.6
same,"CLCN3 gene expression, Treated NSC",[1]; [7],566.5
same,"CLCN6 gene expression, Treated NSC",[1]; [7],349.8
same,"CLCN7 gene expression, Treated NSC",[1]; [7],1305.5
same,"CLIC1 gene expression, Treated NSC",[1]; [7],122.2
same,"KCNA5 gene expression, Treated NSC",[1]; [8],24.2
same,"KCNB1 gene expression, Treated NSC",[1]; [8],32.8
same,"KCNB2 gene expression, Treated NSC",[1]; [8],25
same,"ATP5B gene expression, Treated NSC",[1]; [9],7030.3
same,"ATP6V0A2 gene expression, Treated NSC",[1]; [9],190.2
same,"ATP6V0D1 gene expression, Treated NSC",[1]; [9],3355
same,"ATP6V1A gene expression, Treated NSC",[1]; [9],1155.9
same,"ATP6V1B2 gene expression, Treated NSC",[1]; [9],385.4
same,"SLC2A1 gene expression, Treated NSC",[1]; [9],1274.8
same,"SLC2A11 gene expression, Treated NSC",[1]; [9],22.8
same,"SLC35B1 gene expression, Treated NSC",[1]; [9],1769.8
same,"expression of Fos, FosB and DDIT3","[1]; NSCs, four hours after exposure",significantly up regulated
same,"KCNC4 gene expression, Treated NSC",[1]; [10],4.5
same,"KCND2 gene expression, Treated NSC",[1]; [10],2.3
same,"KCNF1 gene expression, Treated NSC",[1]; [10],189.2
same,"KCNG1 gene expression, Treated NSC",[1]; [10],150.4
same,"KCNJ4 gene expression, Treated NSC",[1]; [10],15.9
same,"KCNJ6 gene expression, Treated NSC",[1]; [10],317.3
same,"KCNJ11 gene expression, Treated NSC",[1]; [10],13.5
same,"KCNQ3 gene expression, Treated NSC",[1]; [10],3.4
same,"KCNQ2 gene expression, Treated NSC","[1]; Rectifier K channels, first line for this gene, 4 hours of exposure",138.1
same,"KCNQ2 gene expression, Treated NSC","[1]; Rectifier K channels, second line for this gene, 4 hours of exposure",919.6
same,"SCN1A gene expression, Treated NSC",[1]; [11],20.5
same,"SCN3A gene expression, Treated NSC",[1]; [11],5.7
same,"SCN9A gene expression, Treated NSC",[1]; [11],1.9
same,expression of KLF 10 (intrinsic mitochondrial apoptotic pathway),"[1]; differentiated cells, treated versus untreated cells",not altered
same,"AFF1 expression, Treated NSC",[1]; four hours after exposure,50.8
same,"ARID3A expression, Treated NSC",[1]; four hours after exposure,2200
same,"ASCL2 expression, Treated NSC",[1]; four hours after exposure,36
same,"CREBL1 expression, Treated NSC",[1]; four hours after exposure,32.2
same,"DDIT3 expression, Treated NSC",[1]; four hours after exposure,2270
same,"DLX1 expression, Treated NSC",[1]; four hours after exposure,1550
same,"DLX2 expression, Treated NSC",[1]; four hours after exposure,54.3
same,"E2F2 expression, Treated NSC",[1]; four hours after exposure,635
same,"E2F7 expression, Treated NSC",[1]; four hours after exposure,711
same,"E2F8 expression, Treated NSC",[1]; four hours after exposure,82.7
same,"EGR1 expression, Treated NSC",[1]; four hours after exposure,3100
same,"EGR2 expression, Treated NSC",[1]; four hours after exposure,155
same,"ELF4 expression, Treated NSC",[1]; four hours after exposure,103
same,"ELF5 expression, Treated NSC",[1]; four hours after exposure,30.8
same,"ELK3 expression, Treated NSC",[1]; four hours after exposure,89.9
same,"ELK4 expression, Treated NSC",[1]; four hours after exposure,39.3
same,"EN1 expression, Treated NSC",[1]; four hours after exposure,48.7
same,"ETS1 expression, Treated NSC",[1]; four hours after exposure,952
same,"ETV1 expression, Treated NSC",[1]; four hours after exposure,34.4
same,"ETV4 expression, Treated NSC",[1]; four hours after exposure,672
same,"FOS expression, Treated NSC",[1]; four hours after exposure,1160
same,"FOSB expression, Treated NSC",[1]; four hours after exposure,174
same,"FOXA2 expression, Treated NSC",[1]; four hours after exposure,36.8
same,"FOXD1 expression, Treated NSC",[1]; four hours after exposure,79.7
same,"FOXF2 expression, Treated NSC",[1]; four hours after exposure,39.3
same,"FOXL2 expression, Treated NSC",[1]; four hours after exposure,120
same,"FOXM1 expression, Treated NSC",[1]; four hours after exposure,287
same,"GATA2 expression, Treated NSC",[1]; four hours after exposure,46.2
same,"GLI2 expression, Treated NSC",[1]; four hours after exposure,227
same,"HCLS1 expression, Treated NSC",[1]; four hours after exposure,40
same,"HEY2 expression, Treated NSC",[1]; four hours after exposure,37.9
same,"HIRA expression, Treated NSC",[1]; four hours after exposure,31.5
same,"HMGB2 expression, Treated NSC",[1]; four hours after exposure,2170
same,"HOXA2 expression, Treated NSC",[1]; four hours after exposure,770
same,"HOXA13 expression, Treated NSC",[1]; four hours after exposure,33.2
same,"HOXB1 expression, Treated NSC",[1]; four hours after exposure,30.6
same,"HOXB2 expression, Treated NSC",[1]; four hours after exposure,1100
same,"HOXB3 expression, Treated NSC",[1]; four hours after exposure,186
same,"HOXB4 expression, Treated NSC",[1]; four hours after exposure,198
same,"HOXB5 expression, Treated NSC",[1]; four hours after exposure,49.9
same,"HOXD3 expression, Treated NSC",[1]; four hours after exposure,70.2
same,"IRF1 expression, Treated NSC",[1]; four hours after exposure,38.9
same,"KLF10 expression, Treated NSC",[1]; four hours after exposure,38.1
same,"L3MBTL expression, Treated NSC",[1]; four hours after exposure,27.5
same,"LHX8 expression, Treated NSC",[1]; four hours after exposure,42.9
same,"MEF2C expression, Treated NSC",[1]; four hours after exposure,33.1
same,"MEOX1 expression, Treated NSC",[1]; four hours after exposure,178
same,"MSX2 expression, Treated NSC",[1]; four hours after exposure,41.9
same,"MYEF2 expression, Treated NSC",[1]; four hours after exposure,30.6
same,"NFATC3 expression, Treated NSC",[1]; four hours after exposure,32.4
same,"NFATC4 expression, Treated NSC",[1]; four hours after exposure,32.8
same,"NFKB2 expression, Treated NSC",[1]; four hours after exposure,68
same,"NR1D2 expression, Treated NSC",[1]; four hours after exposure,44.9
same,"NR2C2 expression, Treated NSC",[1]; four hours after exposure,65.3
same,"NR4A2 expression, Treated NSC",[1]; four hours after exposure,30.4
same,"NRK expression, Treated NSC",[1]; four hours after exposure,43.8
same,"PAX8 expression, Treated NSC",[1]; four hours after exposure,98.9
same,"PBX2 expression, Treated NSC",[1]; four hours after exposure,70.8
same,"PRDM1 expression, Treated NSC",[1]; four hours after exposure,94.7
same,"PRRX2 expression, Treated NSC",[1]; four hours after exposure,67.5
same,"RELB expression, Treated NSC",[1]; four hours after exposure,53.6
same,"RUNX1 expression, Treated NSC",[1]; four hours after exposure,43.3
same,"SALL1 expression, Treated NSC",[1]; four hours after exposure,80.9
same,"SIX4 expression, Treated NSC",[1]; four hours after exposure,185
same,"STAT6 expression, Treated NSC",[1]; four hours after exposure,55.8
same,"TAF5L expression, Treated NSC",[1]; four hours after exposure,77.4
same,"TAF13 expression, Treated NSC",[1]; four hours after exposure,35.2
same,"TBX2 expression, Treated NSC",[1]; four hours after exposure,46.9
same,"TEAD3 expression, Treated NSC",[1]; four hours after exposure,87
same,"TEAD4 expression, Treated NSC",[1]; four hours after exposure,235
same,"TEF expression, Treated NSC",[1]; four hours after exposure,32.4
same,"TGIF1 expression, Treated NSC",[1]; four hours after exposure,117
same,"TP53 expression, Treated NSC",[1]; four hours after exposure,267
same,"ZNF85 expression, Treated NSC",[1]; four hours after exposure,93.8
same,"ZNF197 expression, Treated NSC",[1]; four hours after exposure,32.8
same,"ZNF274 expression, Treated NSC",[1]; four hours after exposure,37.8
same,"ZNF367 expression, Treated NSC",[1]; four hours after exposure,30.9
same,"ZSCAN29 expression, Treated NSC",[1]; four hours after exposure,47.6
same,hit class in primary screen,[2],NSC Killers
